Laboratory results as given in ChEMBL document CHEMBL4507299, “Data for DCP probe PF-04554878” (2021).

Legend:
[1] = system: Tyrosine-protein kinase ABL1 (Homo sapiens), P00519 [T315I]
[2] = system: Tyrosine-protein kinase ABL1 (Homo sapiens), P00519 [E255K]
[3] = molecular target: Hormonally up-regulated neu tumor-associated kinase (Homo sapiens) (UniProt P57058)
[4] = molecular target: Inhibitor of nuclear factor kappa-B kinase subunit alpha (Homo sapiens) (UniProt O15111)
[5] = system: ALK tyrosine kinase receptor (Homo sapiens), Q9UM73 [C1156Y]
[6] = molecular target: Serine/threonine-protein kinase 38-like (Homo sapiens) (UniProt Q9Y2H1)
Sequence of Serine/threonine-protein kinase 38-like (Homo sapiens) (Q9Y2H1 2-464 limits assumed): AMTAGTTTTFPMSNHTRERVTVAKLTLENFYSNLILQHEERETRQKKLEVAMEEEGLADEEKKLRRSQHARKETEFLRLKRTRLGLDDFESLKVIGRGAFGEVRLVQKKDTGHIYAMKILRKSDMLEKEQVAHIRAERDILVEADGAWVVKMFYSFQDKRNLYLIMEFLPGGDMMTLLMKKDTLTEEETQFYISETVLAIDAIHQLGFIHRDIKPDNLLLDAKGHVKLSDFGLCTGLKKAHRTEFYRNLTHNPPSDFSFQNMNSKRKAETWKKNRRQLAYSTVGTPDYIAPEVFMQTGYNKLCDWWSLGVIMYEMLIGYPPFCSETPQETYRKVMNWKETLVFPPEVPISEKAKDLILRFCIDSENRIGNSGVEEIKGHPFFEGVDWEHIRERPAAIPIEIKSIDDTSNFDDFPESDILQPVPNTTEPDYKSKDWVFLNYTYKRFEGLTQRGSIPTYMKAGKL

[7] = molecular target: TGF-beta receptor type-1 (Homo sapiens) (UniProt P36897)
[8] = molecular target: Discoidin domain-containing receptor 2 (Homo sapiens) (UniProt Q16832)
[9] = molecular target: Receptor-interacting serine/threonine-protein kinase 1 (Homo sapiens) (UniProt Q13546)
[10] = molecular target: Receptor tyrosine-protein kinase erbB-3 (Homo sapiens) (UniProt P21860)
[11] = molecular target: 5-hydroxytryptamine receptor 2A (Homo sapiens) (UniProt P28223); details: Compound concentration 10.0 uM
Sequence of 5-hydroxytryptamine receptor 2A (Homo sapiens) (P28223 whole entry): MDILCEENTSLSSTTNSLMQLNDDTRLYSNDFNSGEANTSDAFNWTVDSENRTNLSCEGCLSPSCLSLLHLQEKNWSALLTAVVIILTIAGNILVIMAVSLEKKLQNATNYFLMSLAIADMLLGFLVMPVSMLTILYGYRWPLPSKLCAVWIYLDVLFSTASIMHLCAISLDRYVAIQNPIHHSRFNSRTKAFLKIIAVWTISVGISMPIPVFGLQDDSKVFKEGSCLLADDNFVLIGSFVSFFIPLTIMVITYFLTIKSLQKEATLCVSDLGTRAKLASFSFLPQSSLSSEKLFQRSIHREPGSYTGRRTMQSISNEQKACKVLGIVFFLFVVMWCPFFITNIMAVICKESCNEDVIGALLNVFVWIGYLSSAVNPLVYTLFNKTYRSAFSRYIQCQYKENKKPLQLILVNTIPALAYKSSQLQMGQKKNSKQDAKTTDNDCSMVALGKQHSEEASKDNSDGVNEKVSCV

[12] = molecular target: Ephrin type-A receptor 1 (Homo sapiens) (UniProt P21709)
[13] = molecular target: Serine/threonine-protein kinase 17A (Homo sapiens) (UniProt Q9UEE5)
Sequence of Serine/threonine-protein kinase 17A (Homo sapiens) (Q9UEE5 whole entry): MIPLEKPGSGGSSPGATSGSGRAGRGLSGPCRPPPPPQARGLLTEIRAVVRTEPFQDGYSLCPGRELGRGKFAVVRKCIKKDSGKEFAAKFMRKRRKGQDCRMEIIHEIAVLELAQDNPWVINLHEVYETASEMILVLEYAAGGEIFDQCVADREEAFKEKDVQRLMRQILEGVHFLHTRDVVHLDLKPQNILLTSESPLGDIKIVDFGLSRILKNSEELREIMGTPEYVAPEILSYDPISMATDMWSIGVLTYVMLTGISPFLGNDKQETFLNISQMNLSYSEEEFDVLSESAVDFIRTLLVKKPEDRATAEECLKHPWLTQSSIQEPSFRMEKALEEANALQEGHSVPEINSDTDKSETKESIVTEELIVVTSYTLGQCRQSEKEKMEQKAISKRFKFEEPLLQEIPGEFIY

[14] = molecular target: Serine/threonine-protein kinase Nek2 (Homo sapiens) (UniProt P51955)
[15] = molecular target: Ribosomal protein S6 kinase alpha-4 (Homo sapiens) (UniProt O75676)
[16] = molecular target: T1, Serine/threonine-protein kinase 3 (Homo sapiens) (UniProt Q13188)
T1 sequence (whole entry): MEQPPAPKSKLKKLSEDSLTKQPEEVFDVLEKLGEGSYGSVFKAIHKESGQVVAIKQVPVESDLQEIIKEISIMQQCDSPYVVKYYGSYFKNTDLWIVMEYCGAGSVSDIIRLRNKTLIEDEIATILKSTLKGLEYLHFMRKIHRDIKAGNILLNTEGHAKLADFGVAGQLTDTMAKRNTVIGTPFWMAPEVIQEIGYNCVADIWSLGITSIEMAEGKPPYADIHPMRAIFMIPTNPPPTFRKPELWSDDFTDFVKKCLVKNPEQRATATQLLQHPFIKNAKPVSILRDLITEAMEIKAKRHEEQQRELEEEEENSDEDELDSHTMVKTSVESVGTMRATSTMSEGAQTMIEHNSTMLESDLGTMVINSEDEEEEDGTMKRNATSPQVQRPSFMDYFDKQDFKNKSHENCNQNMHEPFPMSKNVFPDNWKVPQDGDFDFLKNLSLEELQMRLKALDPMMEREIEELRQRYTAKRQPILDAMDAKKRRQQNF

[17] = molecular target: Serine/threonine-protein kinase N2 (Homo sapiens) (UniProt Q16513)
[18] = molecular target: Mast/stem cell growth factor receptor Kit (Homo sapiens) (UniProt P10721)
[19] = molecular target: Serine/threonine-protein kinase NLK (Homo sapiens) (UniProt Q9UBE8)
[20] = molecular target: Tyrosine-protein kinase Fgr (Homo sapiens) (UniProt P09769)
Sequence of Tyrosine-protein kinase Fgr (Homo sapiens) (P09769 2-529 limits assumed): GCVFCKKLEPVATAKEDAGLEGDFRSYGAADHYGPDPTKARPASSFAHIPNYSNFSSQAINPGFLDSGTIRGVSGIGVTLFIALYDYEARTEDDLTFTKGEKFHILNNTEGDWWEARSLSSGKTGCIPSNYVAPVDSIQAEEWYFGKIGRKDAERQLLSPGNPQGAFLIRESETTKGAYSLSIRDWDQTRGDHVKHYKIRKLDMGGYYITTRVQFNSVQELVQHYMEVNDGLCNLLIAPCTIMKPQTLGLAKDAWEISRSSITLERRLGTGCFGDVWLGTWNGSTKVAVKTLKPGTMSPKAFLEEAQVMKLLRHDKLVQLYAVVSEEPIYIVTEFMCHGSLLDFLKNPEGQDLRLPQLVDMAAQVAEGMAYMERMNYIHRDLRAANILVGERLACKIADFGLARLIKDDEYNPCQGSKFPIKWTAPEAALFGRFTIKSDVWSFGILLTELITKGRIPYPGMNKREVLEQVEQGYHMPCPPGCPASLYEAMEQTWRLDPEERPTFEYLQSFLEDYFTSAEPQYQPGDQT

[21] = molecular target: Transient receptor potential cation channel subfamily M member 6 (Homo sapiens) (UniProt Q9BX84)
[22] = molecular target: Serine/threonine-protein kinase tousled-like 2 (Homo sapiens) (UniProt Q86UE8)
[23] = molecular target: T2, Serine/threonine-protein kinase Chk1 (Homo sapiens) (UniProt O14757)
T2 sequence (whole entry): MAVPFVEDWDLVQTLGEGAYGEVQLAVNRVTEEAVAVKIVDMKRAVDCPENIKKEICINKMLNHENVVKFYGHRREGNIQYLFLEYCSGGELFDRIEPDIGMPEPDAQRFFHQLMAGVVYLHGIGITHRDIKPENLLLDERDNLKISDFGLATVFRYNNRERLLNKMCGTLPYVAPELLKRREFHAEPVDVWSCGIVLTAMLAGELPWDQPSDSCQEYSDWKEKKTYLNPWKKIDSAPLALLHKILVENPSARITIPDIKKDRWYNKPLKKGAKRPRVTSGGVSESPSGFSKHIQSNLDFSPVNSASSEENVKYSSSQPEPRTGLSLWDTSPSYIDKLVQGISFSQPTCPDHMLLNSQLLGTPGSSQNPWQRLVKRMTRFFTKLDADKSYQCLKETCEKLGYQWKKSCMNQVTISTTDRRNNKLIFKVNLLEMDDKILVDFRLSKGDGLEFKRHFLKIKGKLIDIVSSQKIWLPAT

[24] = molecular target: 5-hydroxytryptamine receptor 1B (Homo sapiens) (UniProt P28222); details: Compound concentration 10.0 uM
Sequence of 5-hydroxytryptamine receptor 1B (Homo sapiens) (P28222 whole entry): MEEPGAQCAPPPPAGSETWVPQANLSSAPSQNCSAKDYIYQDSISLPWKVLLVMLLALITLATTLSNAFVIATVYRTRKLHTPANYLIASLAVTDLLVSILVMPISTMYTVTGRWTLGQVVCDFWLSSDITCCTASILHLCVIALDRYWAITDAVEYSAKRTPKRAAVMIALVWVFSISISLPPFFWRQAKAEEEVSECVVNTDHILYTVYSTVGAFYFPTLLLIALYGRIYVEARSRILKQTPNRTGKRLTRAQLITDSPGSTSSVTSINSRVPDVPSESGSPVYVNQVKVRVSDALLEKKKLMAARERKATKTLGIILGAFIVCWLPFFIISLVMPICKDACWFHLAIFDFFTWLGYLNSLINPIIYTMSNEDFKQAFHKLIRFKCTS

[25] = molecular target: Ribosomal protein S6 kinase alpha-6 (Homo sapiens) (UniProt Q9UK32)
Sequence of Ribosomal protein S6 kinase alpha-6 (Homo sapiens) (Q9UK32 whole entry): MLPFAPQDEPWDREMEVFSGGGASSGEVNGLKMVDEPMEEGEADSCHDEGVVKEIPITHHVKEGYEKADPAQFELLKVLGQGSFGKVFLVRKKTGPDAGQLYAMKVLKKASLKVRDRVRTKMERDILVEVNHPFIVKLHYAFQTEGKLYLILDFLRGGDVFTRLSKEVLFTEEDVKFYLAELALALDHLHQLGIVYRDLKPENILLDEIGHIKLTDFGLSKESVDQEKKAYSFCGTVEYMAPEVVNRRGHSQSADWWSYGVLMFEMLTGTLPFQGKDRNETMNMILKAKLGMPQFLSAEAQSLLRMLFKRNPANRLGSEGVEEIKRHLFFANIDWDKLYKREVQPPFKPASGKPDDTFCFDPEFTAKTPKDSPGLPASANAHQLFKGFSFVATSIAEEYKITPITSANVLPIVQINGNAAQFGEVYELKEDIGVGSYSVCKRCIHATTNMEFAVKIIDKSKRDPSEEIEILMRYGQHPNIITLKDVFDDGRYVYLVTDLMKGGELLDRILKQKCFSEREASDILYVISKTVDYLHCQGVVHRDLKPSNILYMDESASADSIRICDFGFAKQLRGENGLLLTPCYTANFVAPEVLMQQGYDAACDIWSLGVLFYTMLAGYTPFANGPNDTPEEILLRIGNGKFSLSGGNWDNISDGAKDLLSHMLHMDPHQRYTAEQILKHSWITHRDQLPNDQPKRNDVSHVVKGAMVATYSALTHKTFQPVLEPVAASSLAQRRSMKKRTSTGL

[26] = molecular target: Bone morphogenetic protein receptor type-2 (Homo sapiens) (UniProt Q13873)
[27] = molecular target: Mitogen-activated protein kinase kinase kinase 11 (Homo sapiens) (UniProt Q16584)
[28] = molecular target: Serine/threonine-protein kinase PAK 1 (Homo sapiens) (UniProt Q13153)
Sequence of Serine/threonine-protein kinase PAK 1 (Homo sapiens) (Q13153 whole entry): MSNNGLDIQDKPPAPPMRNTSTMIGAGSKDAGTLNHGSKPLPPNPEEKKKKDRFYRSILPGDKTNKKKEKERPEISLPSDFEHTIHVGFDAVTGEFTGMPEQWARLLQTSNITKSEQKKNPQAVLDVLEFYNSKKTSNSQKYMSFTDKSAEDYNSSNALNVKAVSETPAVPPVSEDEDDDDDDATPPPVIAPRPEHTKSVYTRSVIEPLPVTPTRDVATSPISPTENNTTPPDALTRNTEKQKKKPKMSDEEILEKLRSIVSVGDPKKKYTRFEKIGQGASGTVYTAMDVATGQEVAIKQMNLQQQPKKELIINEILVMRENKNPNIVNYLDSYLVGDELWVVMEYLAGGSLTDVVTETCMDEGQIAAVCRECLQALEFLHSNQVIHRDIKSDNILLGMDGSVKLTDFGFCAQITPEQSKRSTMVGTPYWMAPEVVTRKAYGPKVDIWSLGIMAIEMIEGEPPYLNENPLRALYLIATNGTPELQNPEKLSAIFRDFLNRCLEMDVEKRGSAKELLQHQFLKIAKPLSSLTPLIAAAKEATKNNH

[29] = molecular target: Receptor-interacting serine/threonine-protein kinase 2 (Homo sapiens) (UniProt O43353)
[30] = system: Receptor-type tyrosine-protein kinase FLT3 (Homo sapiens), P36888 [K663Q]
[31] = molecular target: Activated CDC42 kinase 1 (Homo sapiens) (UniProt Q07912)
[32] = molecular target: STE20/SPS1-related proline-alanine-rich protein kinase (Homo sapiens) (UniProt Q9UEW8)
[33] = Compound concentration 100.0 nM
[34] = Compound concentration 1000.0 nM

Sequence of Inhibitor of nuclear factor kappa-B kinase subunit alpha (Homo sapiens) (O15111 whole entry): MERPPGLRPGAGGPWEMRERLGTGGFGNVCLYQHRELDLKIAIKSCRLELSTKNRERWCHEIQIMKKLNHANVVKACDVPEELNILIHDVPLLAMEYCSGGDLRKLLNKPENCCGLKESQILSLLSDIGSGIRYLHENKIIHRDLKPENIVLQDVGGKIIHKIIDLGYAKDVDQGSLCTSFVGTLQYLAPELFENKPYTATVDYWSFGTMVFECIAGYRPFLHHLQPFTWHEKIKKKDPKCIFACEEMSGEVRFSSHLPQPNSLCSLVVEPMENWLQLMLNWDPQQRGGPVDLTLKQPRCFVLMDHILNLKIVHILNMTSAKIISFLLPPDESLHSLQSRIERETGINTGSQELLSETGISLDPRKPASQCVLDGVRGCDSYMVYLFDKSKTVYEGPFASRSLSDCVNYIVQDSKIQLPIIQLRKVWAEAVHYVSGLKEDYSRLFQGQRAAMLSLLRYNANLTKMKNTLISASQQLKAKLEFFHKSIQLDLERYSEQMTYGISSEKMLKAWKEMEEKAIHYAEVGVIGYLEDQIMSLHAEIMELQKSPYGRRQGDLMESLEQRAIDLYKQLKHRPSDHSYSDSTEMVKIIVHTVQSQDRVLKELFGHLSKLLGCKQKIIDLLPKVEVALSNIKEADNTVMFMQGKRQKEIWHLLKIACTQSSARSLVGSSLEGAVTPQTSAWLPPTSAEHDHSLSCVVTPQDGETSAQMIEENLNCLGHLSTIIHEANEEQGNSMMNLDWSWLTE
Sequence of Hormonally up-regulated neu tumor-associated kinase (Homo sapiens) (P57058 whole entry): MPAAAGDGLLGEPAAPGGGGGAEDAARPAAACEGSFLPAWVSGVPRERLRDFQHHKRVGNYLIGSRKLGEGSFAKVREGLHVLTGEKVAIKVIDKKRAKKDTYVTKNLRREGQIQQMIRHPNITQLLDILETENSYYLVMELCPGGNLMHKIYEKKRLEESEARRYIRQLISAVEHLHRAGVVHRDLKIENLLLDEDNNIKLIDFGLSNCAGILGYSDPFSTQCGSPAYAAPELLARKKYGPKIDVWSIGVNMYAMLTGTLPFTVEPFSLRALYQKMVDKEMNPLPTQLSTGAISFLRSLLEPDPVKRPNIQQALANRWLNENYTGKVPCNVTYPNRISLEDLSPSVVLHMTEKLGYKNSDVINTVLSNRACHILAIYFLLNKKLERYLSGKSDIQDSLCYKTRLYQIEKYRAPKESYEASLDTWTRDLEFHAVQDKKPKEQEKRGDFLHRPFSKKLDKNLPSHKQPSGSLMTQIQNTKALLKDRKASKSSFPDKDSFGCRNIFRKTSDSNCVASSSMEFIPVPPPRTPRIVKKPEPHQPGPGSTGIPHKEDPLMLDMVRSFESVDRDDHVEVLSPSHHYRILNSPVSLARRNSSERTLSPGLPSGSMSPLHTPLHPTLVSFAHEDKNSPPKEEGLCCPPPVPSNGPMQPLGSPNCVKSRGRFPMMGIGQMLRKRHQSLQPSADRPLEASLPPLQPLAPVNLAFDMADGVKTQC

CNC(=O)c1ccc(Nc2ncc(C(F)(F)F)c(NCc3nccnc3N(C)S(C)(=O)=O)n2)cc1 [DEFACTINIB]
residual activity [1, 33]: 45% | residual activity [2, 33]: 100% | residual activity [3, 33]: 100% | residual activity [4, 33]: 98% | residual activity [5, 33]: 74% | residual activity [6, 33]: 73% | residual activity [7, 33]: 87% | residual activity [8, 33]: 100% | residual activity [9, 33]: 100% | residual activity [10, 33]: 93% | inhibition [11]: 0.93% | residual activity [12, 33]: 98% | residual activity [13, 33]: 19% | residual activity [14, 33]: 75% | residual activity [15, 33]: 85% | residual activity [16, 33]: 68% | residual activity [17, 33]: 37% | residual activity [18, 33]: 100% | residual activity [19, 33]: 100% | residual activity [20, 33]: 81% | residual activity [21, 33]: 98% | residual activity [22, 33]: 90% | residual activity [23, 33]: 100% | inhibition [24]: 12.5% | residual activity [25, 33]: 49% | residual activity [26, 33]: 91% | residual activity [27, 33]: 35% | residual activity [28, 33]: 75% | residual activity [29, 33]: 100% | residual activity [30, 33]: 21% | residual activity [31, 33]: 100% | residual activity [32, 33]: 100%

CN(c1ccnc(CNc2nc(Nc3ccc4c(c3)CC(=O)N4)ncc2C(F)(F)F)n1)S(C)(=O)=O [PF-00911705]
residual activity [1, 34]: 11% | residual activity [2, 34]: 34% | residual activity [3, 34]: 100% | residual activity [4, 34]: 57% | residual activity [5, 34]: 77% | residual activity [6, 34]: 75% | residual activity [7, 34]: 44% | residual activity [8, 34]: 94% | residual activity [9, 34]: 100% | residual activity [10, 34]: 78% | inhibition [11]: 4.75% | residual activity [12, 34]: 86% | residual activity [13, 34]: 11% | residual activity [14, 34]: 83% | residual activity [15, 34]: 81% | residual activity [16, 34]: 46% | residual activity [17, 34]: 22% | residual activity [18, 34]: 52% | residual activity [19, 34]: 98% | residual activity [20, 34]: 58% | residual activity [21, 34]: 86% | residual activity [22, 34]: 100% | residual activity [23, 34]: 57% | inhibition [24]: 5.78% | residual activity [25, 34]: 79% | residual activity [26, 34]: 60% | residual activity [27, 34]: 32% | residual activity [28, 34]: 73% | residual activity [29, 34]: 82% | residual activity [30, 34]: 16% | residual activity [31, 34]: 86% | residual activity [32, 34]: 100%
